The values that follow are results of earlier work, collected in patent publication US20110152382A1, “Composition of molecular elements for phosphorylase kinase inhibition” (priority 2009, published 2011).

Data set [1] relates to phosphorylase kinase.
Data set [2] concerns phosphorylase kinase. Conditions: previously reported by the inventor.

Regarding curcumin glucuronate, the anti-phosphorylase kinase activity entry in data set [1] was “do not have anti-phosphorylase kinase activity”.

For `COc1cc(/C=C/C(=O)CC(=O)/C=C/c2ccc(O)c(OC)c2)ccc1O` [curcumin, diferuloylmethane], the “phosphorylase kinase activity in psoriatic skin” value in data set [2] was “suppression of phosphorylase kinase activity”. Further, the anti-phosphorylase kinase activity entry in data set [1] is “selective phosphorylase kinase inhibitor”.
